According to patent publication US11905284B2, “5,7-dihydro-pyrrolo-pyridine derivatives” (PFIZER INC., priority 2016, dated 2024):

Target: T1, Human M4 receptors (Homo sapiens, UniProt P08173)
T1 construct: expressed in transfected cells; host or cells: HEK293 cells with Promega GloSensor cAMP technology, stably expressing hM4
T1 sequence (P08173 1-479): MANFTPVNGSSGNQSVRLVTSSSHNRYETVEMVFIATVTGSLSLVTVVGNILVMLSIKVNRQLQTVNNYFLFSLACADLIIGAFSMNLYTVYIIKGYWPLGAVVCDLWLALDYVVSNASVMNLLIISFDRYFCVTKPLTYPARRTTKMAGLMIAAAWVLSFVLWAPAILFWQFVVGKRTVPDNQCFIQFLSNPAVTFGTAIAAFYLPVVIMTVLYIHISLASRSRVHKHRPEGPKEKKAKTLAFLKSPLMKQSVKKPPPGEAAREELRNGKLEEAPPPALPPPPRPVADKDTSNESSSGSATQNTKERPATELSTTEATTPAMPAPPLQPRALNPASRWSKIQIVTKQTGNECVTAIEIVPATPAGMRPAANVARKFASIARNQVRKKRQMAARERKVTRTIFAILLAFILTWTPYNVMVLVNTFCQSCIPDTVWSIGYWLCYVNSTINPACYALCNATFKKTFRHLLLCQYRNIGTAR
Assay: M4 PAM cAMP assay (GloSensor)
Type: cell-based
Settings: for Emax: HEK293, read-out: M4 glosensor EC50 Mean Asymptote Maximum (%)

[1] = HEK293 GloSensor cells expressing hM4, with EC20 acetylcholine and isoproterenol, geometric mean of 2-4 determinations unless otherwise indicated

SMILES	M4 glosensor EC50 Mean Asymptote Maximum (%) (Emax = maximum asymptote of fitted dose response curve, HEK293 GloSensor cells expressing hM4, with EC20 acetylcholine and isoproterenol, geometric mean of 2-4 determinations unless otherwise indicated)	EC50 [1] [nM]	Emax [%]
Cc1nc2c(c(C)c1C)CN(C(=O)C[C@@H]1C[C@H]1c1cccnc1)C2 (single isomer, unassigned) [Example 37, 2-[trans-2-(pyridin-3-yl)cyclopropyl]-1-(2,3,4-trimethyl-5,7-dihydro-6H-pyrrolo[3,4-b]pyridin-6-yl)ethanone]	85.8	1790	
Cc1cc(C(F)F)nc2c1CN(C(=O)CC1CN(c3ccnc(C(F)F)c3)C1)C2 [Example 45, 1-[2-(difluoromethyl)-4-methyl-5,7-dihydro-6H-pyrrolo[3,4-b]pyridin-6-yl]-2-{1-[2-(difluoromethyl)pyridin-4-yl]azetidin-3-yl}ethanone]		15.6	93.5
Cc1nc2c(c(C)c1Cl)CN(C(=O)OC1CN(c3ncns3)C1)C2 [Example 67, 1-(1,2,4-thiadiazol-5-yl)azetidin-3-yl 3-chloro-2,4-dimethyl-5,7-dihydro-6H-pyrrolo[3,4-b]pyridine-6-carboxylate]		18.5	98.6
